Assay results published in the supplement of paper PMC10307832.

Assays:
Test in all cases: relative viability (nuclei count vs DMSO), 5 days (fraction); higher = more cells survive
IPA-3 + Luminespib = compound: C1=CC=C2C(=C1)C=CC(=C2SSC3=C(C=CC4=CC=CC=C43)O)O [IPA-3] + CCNC(=O)c1noc(-c2cc(C(C)C)c(O)cc2O)c1-c1ccc(CN2CCOCC2)cc1 [Luminespib] (partner 0.01 µM)
How it was run: (§1)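 Lung cancer cell lines in 1536-well plates were dosed by pin tool the day after seeding, either with one drug alone or with a fixed anchor-drug dose plus five library-drug doses (not always all listed) in √10 steps. After 5 days, cells were fixed and their nuclei stained in one step (final 0.05% Triton X-100, 1% formaldehyde, 1 ug/ml Hoechst), then counted on 4× images. Relative viability is the nuclei count in treated wells divided by that in vehicle wells. Values are medians of duplicate plates.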

Doramapimod + Decitabine = compound: Cc1ccc(-n2nc(C(C)(C)C)cc2NC(=O)Nc2ccc(OCCN3CCOCC3)c3ccccc23)cc1 [Doramapimod] + Nc1ncn([C@H]2C[C@H](O)[C@@H](CO)O2)c(=O)n1 [Decitabine] (partner 2 µM)
How it was run: as §1

RAF265 + Bortezomib = compound: Cn1c(Nc2ccc(C(F)(F)F)cc2)nc2cc(Oc3ccnc(-c4ncc(C(F)(F)F)[nH]4)c3)ccc21 [RAF265] + CC(C)C[C@H](NC(=O)[C@H](Cc1ccccc1)NC(=O)c1cnccn1)B(O)O [Bortezomib] (partner 0.002 µM)
How it was run: as §1

Doramapimod + Vorinostat = compound: Cc1ccc(-n2nc(C(C)(C)C)cc2NC(=O)Nc2ccc(OCCN3CCOCC3)c3ccccc23)cc1 [Doramapimod] + O=C(CCCCCCC(=O)Nc1ccccc1)NO [Vorinostat] (partner 1 µM)
How it was run: as §1

## NCI-H520
IPA-3 + Luminespib; first compound 0.2 µM
  relative viability: 0.213
IPA-3 + Luminespib; first compound 0.6325 µM
  relative viability: 0.3
IPA-3 + Luminespib; first compound 2 µM
  relative viability: 0.266
IPA-3 + Luminespib; first compound 6.325 µM
  relative viability: 0.244
IPA-3 + Luminespib; first compound 20 µM
  relative viability: 0.247
Doramapimod + Decitabine; first compound 0.02 µM
  relative viability: 0.408
Doramapimod + Decitabine; first compound 0.06325 µM
  relative viability: 0.46
Doramapimod + Decitabine; first compound 0.2 µM
  relative viability: 0.536
Doramapimod + Decitabine; first compound 0.6325 µM
  relative viability: 0.552
Doramapimod + Decitabine; first compound 2 µM
  relative viability: 0.424
RAF265 + Bortezomib; first compound 0.01 µM
  relative viability: 0.389
RAF265 + Bortezomib; first compound 0.03162 µM
  relative viability: 0.547
RAF265 + Bortezomib; first compound 0.1 µM
  relative viability: 0.545
RAF265 + Bortezomib; first compound 0.3162 µM
  relative viability: 0.486
RAF265 + Bortezomib; first compound 1 µM
  relative viability: 0.202
Doramapimod + Vorinostat; first compound 0.02 µM
  relative viability: 0.672
Doramapimod + Vorinostat; first compound 0.06325 µM
  relative viability: 0.755
Doramapimod + Vorinostat; first compound 0.2 µM
  relative viability: 0.653
Doramapimod + Vorinostat; first compound 0.6325 µM
  relative viability: 0.731
Doramapimod + Vorinostat; first compound 2 µM
  relative viability: 0.609

## NCI-H596
IPA-3 + Luminespib; first compound 0.2 µM
  relative viability: 1.17
IPA-3 + Luminespib; first compound 0.6325 µM
  relative viability: 0.955
IPA-3 + Luminespib; first compound 2 µM
  relative viability: 1.04
IPA-3 + Luminespib; first compound 6.325 µM
  relative viability: 0.637
IPA-3 + Luminespib; first compound 20 µM
  relative viability: 0.662
Doramapimod + Decitabine; first compound 0.02 µM
  relative viability: 1
Doramapimod + Decitabine; first compound 0.06325 µM
  relative viability: 0.97
Doramapimod + Decitabine; first compound 0.2 µM
  relative viability: 1.02
Doramapimod + Decitabine; first compound 0.6325 µM
  relative viability: 0.995
Doramapimod + Decitabine; first compound 2 µM
  relative viability: 1
RAF265 + Bortezomib; first compound 0.01 µM
  relative viability: 1.18
RAF265 + Bortezomib; first compound 0.03162 µM
  relative viability: 0.987
RAF265 + Bortezomib; first compound 0.1 µM
  relative viability: 1.08
RAF265 + Bortezomib; first compound 0.3162 µM
  relative viability: 0.85
RAF265 + Bortezomib; first compound 1 µM
  relative viability: 0.743
Doramapimod + Vorinostat; first compound 0.02 µM
  relative viability: 0.643
Doramapimod + Vorinostat; first compound 0.06325 µM
  relative viability: 0.672
Doramapimod + Vorinostat; first compound 0.2 µM
  relative viability: 0.616
Doramapimod + Vorinostat; first compound 0.6325 µM
  relative viability: 0.605
Doramapimod + Vorinostat; first compound 2 µM
  relative viability: 0.561

## NCI-H647
IPA-3 + Luminespib; first compound 0.2 µM
  relative viability: 0.192
IPA-3 + Luminespib; first compound 0.6325 µM
  relative viability: 0.148
IPA-3 + Luminespib; first compound 2 µM
  relative viability: 0.176
IPA-3 + Luminespib; first compound 6.325 µM
  relative viability: 0.142
IPA-3 + Luminespib; first compound 20 µM
  relative viability: 0.102
Doramapimod + Decitabine; first compound 0.02 µM
  relative viability: 0.44
Doramapimod + Decitabine; first compound 0.06325 µM
  relative viability: 0.331
Doramapimod + Decitabine; first compound 0.2 µM
  relative viability: 0.39
Doramapimod + Decitabine; first compound 0.6325 µM
  relative viability: 0.418
Doramapimod + Decitabine; first compound 2 µM
  relative viability: 0.365
RAF265 + Bortezomib; first compound 0.01 µM
  relative viability: 0.949
RAF265 + Bortezomib; first compound 0.03162 µM
  relative viability: 0.806
RAF265 + Bortezomib; first compound 0.1 µM
  relative viability: 0.686
RAF265 + Bortezomib; first compound 0.3162 µM
  relative viability: 0.58
RAF265 + Bortezomib; first compound 1 µM
  relative viability: 0.426
Doramapimod + Vorinostat; first compound 0.02 µM
  relative viability: 0.336
Doramapimod + Vorinostat; first compound 0.06325 µM
  relative viability: 0.621
Doramapimod + Vorinostat; first compound 0.2 µM
  relative viability: 0.429
Doramapimod + Vorinostat; first compound 0.6325 µM
  relative viability: 0.548
Doramapimod + Vorinostat; first compound 2 µM
  relative viability: 0.381

## NCI-H650
IPA-3 + Luminespib; first compound 0.2 µM
  relative viability: 0.964
IPA-3 + Luminespib; first compound 0.6325 µM
  relative viability: 0.851
IPA-3 + Luminespib; first compound 2 µM
  relative viability: 0.733
IPA-3 + Luminespib; first compound 6.325 µM
  relative viability: 0.805
IPA-3 + Luminespib; first compound 20 µM
  relative viability: 1.06
Doramapimod + Decitabine; first compound 0.02 µM
  relative viability: 0.326
Doramapimod + Decitabine; first compound 0.06325 µM
  relative viability: 0.339
Doramapimod + Decitabine; first compound 0.2 µM
  relative viability: 0.35
Doramapimod + Decitabine; first compound 0.6325 µM
  relative viability: 0.323
Doramapimod + Decitabine; first compound 2 µM
  relative viability: 0.325
RAF265 + Bortezomib; first compound 0.01 µM
  relative viability: 0.836
RAF265 + Bortezomib; first compound 0.03162 µM
  relative viability: 0.781
RAF265 + Bortezomib; first compound 0.1 µM
  relative viability: 0.793
RAF265 + Bortezomib; first compound 0.3162 µM
  relative viability: 0.539
RAF265 + Bortezomib; first compound 1 µM
  relative viability: 0.32
Doramapimod + Vorinostat; first compound 0.02 µM
  relative viability: 0.534
Doramapimod + Vorinostat; first compound 0.06325 µM
  relative viability: 0.568
Doramapimod + Vorinostat; first compound 0.2 µM
  relative viability: 0.423
Doramapimod + Vorinostat; first compound 0.6325 µM
  relative viability: 0.414
Doramapimod + Vorinostat; first compound 2 µM
  relative viability: 0.456

## NCI-H661
IPA-3 + Luminespib; first compound 0.2 µM
  relative viability: 0.911
IPA-3 + Luminespib; first compound 0.6325 µM
  relative viability: 0.874
IPA-3 + Luminespib; first compound 2 µM
  relative viability: 0.919
IPA-3 + Luminespib; first compound 6.325 µM
  relative viability: 0.866
IPA-3 + Luminespib; first compound 20 µM
  relative viability: 0.921
Doramapimod + Decitabine; first compound 0.02 µM
  relative viability: 0.563
Doramapimod + Decitabine; first compound 0.06325 µM
  relative viability: 0.564
Doramapimod + Decitabine; first compound 0.2 µM
  relative viability: 0.63
Doramapimod + Decitabine; first compound 0.6325 µM
  relative viability: 0.631
Doramapimod + Decitabine; first compound 2 µM
  relative viability: 0.492
RAF265 + Bortezomib; first compound 0.01 µM
  relative viability: 0.87
RAF265 + Bortezomib; first compound 0.03162 µM
  relative viability: 0.649
RAF265 + Bortezomib; first compound 0.1 µM
  relative viability: 0.862
RAF265 + Bortezomib; first compound 0.3162 µM
  relative viability: 0.657
RAF265 + Bortezomib; first compound 1 µM
  relative viability: 0.403
Doramapimod + Vorinostat; first compound 0.02 µM
  relative viability: 0.815
Doramapimod + Vorinostat; first compound 0.06325 µM
  relative viability: 0.74
Doramapimod + Vorinostat; first compound 0.2 µM
  relative viability: 0.797
Doramapimod + Vorinostat; first compound 0.6325 µM
  relative viability: 0.788
Doramapimod + Vorinostat; first compound 2 µM
  relative viability: 0.767

## NCI-H727
IPA-3 + Luminespib; first compound 0.2 µM
  relative viability: 0.318
IPA-3 + Luminespib; first compound 0.6325 µM
  relative viability: 1.29
IPA-3 + Luminespib; first compound 2 µM
  relative viability: 0.755
IPA-3 + Luminespib; first compound 6.325 µM
  relative viability: 0.33
IPA-3 + Luminespib; first compound 20 µM
  relative viability: 0.24
Doramapimod + Decitabine; first compound 0.02 µM
  relative viability: 0.855
Doramapimod + Decitabine; first compound 0.06325 µM
  relative viability: 0.852
Doramapimod + Decitabine; first compound 0.2 µM
  relative viability: 0.999
Doramapimod + Decitabine; first compound 0.6325 µM
  relative viability: 0.736
Doramapimod + Decitabine; first compound 2 µM
  relative viability: 0.767
RAF265 + Bortezomib; first compound 0.01 µM
  relative viability: 0.855
RAF265 + Bortezomib; first compound 0.03162 µM
  relative viability: 0.783
RAF265 + Bortezomib; first compound 0.1 µM
  relative viability: 0.908
RAF265 + Bortezomib; first compound 0.3162 µM
  relative viability: 0.796
RAF265 + Bortezomib; first compound 1 µM
  relative viability: 0.456
Doramapimod + Vorinostat; first compound 0.02 µM
  relative viability: 1.18
Doramapimod + Vorinostat; first compound 0.06325 µM
  relative viability: 1.18
Doramapimod + Vorinostat; first compound 0.2 µM
  relative viability: 1.14
Doramapimod + Vorinostat; first compound 0.6325 µM
  relative viability: 1.05
Doramapimod + Vorinostat; first compound 2 µM
  relative viability: 1.1

## NCI-H838
IPA-3 + Luminespib; first compound 0.2 µM
  relative viability: 0.238
IPA-3 + Luminespib; first compound 0.6325 µM
  relative viability: 0.218
IPA-3 + Luminespib; first compound 2 µM
  relative viability: 0.306
IPA-3 + Luminespib; first compound 6.325 µM
  relative viability: 0.276
IPA-3 + Luminespib; first compound 20 µM
  relative viability: 0.378
Doramapimod + Decitabine; first compound 0.02 µM
  relative viability: 0.455
Doramapimod + Decitabine; first compound 0.06325 µM
  relative viability: 0.477
Doramapimod + Decitabine; first compound 0.2 µM
  relative viability: 0.499
Doramapimod + Decitabine; first compound 0.6325 µM
  relative viability: 0.476
Doramapimod + Decitabine; first compound 2 µM
  relative viability: 0.472
RAF265 + Bortezomib; first compound 0.01 µM
  relative viability: 0.784
RAF265 + Bortezomib; first compound 0.03162 µM
  relative viability: 0.899
RAF265 + Bortezomib; first compound 0.1 µM
  relative viability: 0.788
RAF265 + Bortezomib; first compound 0.3162 µM
  relative viability: 0.841
RAF265 + Bortezomib; first compound 1 µM
  relative viability: 0.572
Doramapimod + Vorinostat; first compound 0.02 µM
  relative viability: 0.749
Doramapimod + Vorinostat; first compound 0.06325 µM
  relative viability: 0.749
Doramapimod + Vorinostat; first compound 0.2 µM
  relative viability: 0.766
Doramapimod + Vorinostat; first compound 0.6325 µM
  relative viability: 0.808
Doramapimod + Vorinostat; first compound 2 µM
  relative viability: 0.726

## NCI-H1355
IPA-3 + Luminespib; first compound 0.2 µM
  relative viability: 0.889
IPA-3 + Luminespib; first compound 0.6325 µM
  relative viability: 0.677
IPA-3 + Luminespib; first compound 2 µM
  relative viability: 0.719
IPA-3 + Luminespib; first compound 6.325 µM
  relative viability: 0.702
IPA-3 + Luminespib; first compound 20 µM
  relative viability: 0.757
Doramapimod + Decitabine; first compound 0.02 µM
  relative viability: 0.372
Doramapimod + Decitabine; first compound 0.06325 µM
  relative viability: 0.357
Doramapimod + Decitabine; first compound 0.2 µM
  relative viability: 0.347
Doramapimod + Decitabine; first compound 0.6325 µM
  relative viability: 0.407
Doramapimod + Decitabine; first compound 2 µM
  relative viability: 0.359
RAF265 + Bortezomib; first compound 0.01 µM
  relative viability: 1.26
RAF265 + Bortezomib; first compound 0.03162 µM
  relative viability: 1.19
RAF265 + Bortezomib; first compound 0.1 µM
  relative viability: 1.05
RAF265 + Bortezomib; first compound 0.3162 µM
  relative viability: 1.09
RAF265 + Bortezomib; first compound 1 µM
  relative viability: 0.804
Doramapimod + Vorinostat; first compound 0.02 µM
  relative viability: 0.621
Doramapimod + Vorinostat; first compound 0.06325 µM
  relative viability: 0.577
Doramapimod + Vorinostat; first compound 0.2 µM
  relative viability: 0.64
Doramapimod + Vorinostat; first compound 0.6325 µM
  relative viability: 0.704
Doramapimod + Vorinostat; first compound 2 µM
  relative viability: 0.566
